Assay results as given in patent US20240228647A1, “OFATUMUMAB FOR TREATING MULTIPLE SCLEROSIS IN ASIAN PATIENTS” (Novartis AG, priority 2021, published 2024).
Marks after values point to notes of the source that are not given here.

Experiments:
[1] = system: patients with RMS; test: Time to confirmed disability worsening (3mCDW, 6mCDW), Phase III Studies I and II; type: in vivo, human; conditions: for 3mCDW event rate n/N (%) / 3mCDW events n / 6mCDW event rate n/N (%) / 6mCDW events n: FAS
Experimental: (§1) Ofatumumab was investigated in 1882 patients with RMS from two identical Phase III randomized, double-blind, double-dummy, active-comparator controlled, parallel-group, multicenter studies of identical design (Study I and Study II). Patients were randomized to receive either ofatumumab, OMB (20 mg s.c injections every 4 weeks, after an initial loading regimen of 3 injections on Day 1, 7, and 14), or teriflunomide, TER (14 mg p.o. once a day) as active comparator. For brevity, the teriflunomide data are not shown hereinafter.
(§2) The maximum treatment duration for an individual patient was 30 study months (approximately 2.5 years). The two studies included a total of 71 patients of Asian race (36 patients in ofatumumab and 35 patients in teriflunomide treatment groups). This Example also includes the Asian patients data from oncology studies (Study A and Study B), as supportive data, where required.
Time to 3 mCDW and 6 mCDW were key secondary efficacy endpoints in the pivotal Phase III studies.

[2] = system: patients with RMS; test: Gd-enhancing T1 lesions per scan, Phase III Studies I and II; type: in vivo, human; conditions: for Gd-enhancing T1 lesions rate reduction (%): vs teriflunomide
Experimental: as §1, §2
The number of Gd-enhancing T1 lesions per scan was a key secondary efficacy endpoint in the pivotal Phase III studies.

[3] = system: patients with RMS; test: Annualized relapse rate (ARR), confirmed relapses, Phase III Studies I and II; type: in vivo, human; conditions: for ARR (number of relapses/patient years) / Adjusted ARR (9559) / Number of relapses (confirmed): FAS; for ARR rate reduction (%): vs teriflunomide
Experimental: as §1, §2
ARR was the primary efficacy endpoint in the pivotal Phase III studies. Treatment with ofatumumab and teriflunomide were both associated with relatively low ARRs. in the Asian subgroups, with 4 to 5 confirmed relapses in any of the treatment groups (ARRs of 0.08-0.09) (Table 2).

[4] = Pharmacokinetics of ofatumumab in patients (ethnic comparison, half-life); conditions: 2000 mg intravenous infusion, refractory CLL
[5] = system: serum IgG and IgM levels; test: Serum IgG and IgM levels under long-term ofatumumab treatment; type: in vivo, human
Experimental: Serum immunoglobulin (Ig) levels can be determined routinely in clinical practice. In the present application serum Ig levels can preferably be determined by immunoturbidimetry. Preferably a Roche cobas® Analyzer was used, especially module c of the cobas® analyser. In a preferred embodiment Ig levels can be determined by using a cobas® c 311 analyzer. It is further preferred that IgG measurements are carried out as described in the cobas® leaflet “IGG-2 Tina-quant IgG Gen.2”, preferably version 11.0 dated 2016-02 and IgM measurements as described in the leaflet “IGM-2 Tina-quant IgM Gen.2”, preferably version 13.0 dated 2018-11.
Serum samples were preferably kept at 2-8° C. before measurement.
Patients were subjected to a long term treatment. Patients received ofatumumab 20 mg sc injections every 4 weeks (after an initial loading regimen of 20 mg sc doses on weeks 0, 1 and 2).

ofatumumab [OMB]
3mCDW event rate n/N (%) ([1]; Asian (race)): (8.3) % | 3mCDW events n ([1]; Asian (race)): 3/36 | 6mCDW event rate n/N (%) ([1]; Asian (race)): (8.3) % | 6mCDW events n ([1]; Asian (race)): 3/36 | 3mCDW event rate n/N (%) ([1]; Rest of World (race)): (9.3) % | 3mCDW events n ([1]; Rest of World (race)): 85/910 | 6mCDW event rate n/N (%) ([1]; Rest of World (race)): (7.5) % | 6mCDW events n ([1]; Rest of World (race)): 68/910 | 3mCDW risk reduction compared with teriflunomide ([1]; overall population): 33.0% | 6mCDW risk reduction compared with teriflunomide ([1]; overall population): 31.0% | Gd-enhancing lesions/number of scans (lesion rate) ([2]; Asian): (0.019) | Number of Gd-enhancing lesions ([2]; Asian): 1/54 | Gd-enhancing lesions/number of scans (lesion rate) ([2]; Rest of World): (0.031) | Number of Gd-enhancing lesions ([2]; Rest of World): 51/1666 | Reduction of mean number of Gd-enhancing T1 lesions per scan compared with teriflunomide ([2]; overall population): 95.8% | Gd-enhancing T1 lesions rate reduction (%) ([2]; Asian): 93.8/0.022* % | Gd-enhancing T1 lesions rate reduction (%) ([2]; Rest of World): 95.9/<0.001* % | ARR (number of relapses/patient years) ([3]; Asian (race)): (0.084) | Adjusted ARR (9559) ([3]; Asian (race)): 0.08 (0.03, 0.24) | Number of relapses (confirmed) ([3]; Asian (race)): 4/47 | ARR (number of relapses/patient years) ([3]; Rest of World (race)): (0.122) | Adjusted ARR (9559) ([3]; Rest of World (race)): 0.12 (0.10, 0.14) | Number of relapses (confirmed) ([3]; Rest of World (race)): 181/1490 | Reduction of adjusted ARR compared with teriflunomide ([3]; overall population): 52.6% | ARR rate reduction (%) ([3]; Asian (race)): 11.8/0.862% | ARR rate reduction (%) ([3]; Rest of World (race)): 53.3/<0.001* % | ARR rate reduction (%) ([3]; Rest of World (race), listed as ofatumumab): 53.3% | PK parameters (Cmax, AUC, T1/2) in Asian vs. White patients [4]: Comparable PK parameters | IgM levels with longer duration ([5]; 20 mg sc every 4 weeks, FIGS. 3 and 4): A reduction in IgM levels | IgG levels over the long-term follow-up ([5]; 20 mg sc every 4 weeks, follow-up of >4 years, FIG. 1): stable | IgM levels versus lower limit of normal ([5]; 20 mg sc every 4 weeks, longer duration, FIGS. 3 and 4): levels remained above the lower limit of normal | Increase of IgG levels ([5]; after two years (96 weeks), FIG. 6): about 3%
